In PubChem BioAssay AID489033 (Sanford-Burnham Center for Chemical Genomics, 2010):
Activity calls are given as the source filed them. How the calls were made is not given here.

Test system: 697B B-cell line, NF-kB luciferase reporter luminescence
Assay: NF-kB reporter inhibition in B cells, dose response, selectivity assay for T-cell antigen receptor NF-kB inhibitors, 697B cells, luminescence (AID 489033)

Structure (SMILES) | IC50
CCOC(=O)c1c(C)[nH]c(C(=O)N/N=C/c2ccc(Br)cc2)c1C | > 80 µM (inactive)
COc1ccccc1C1=NOC(COc2ccc3c(C)cc(=O)oc3c2)C1 (centres undefined) | > 80 µM (inactive)
CCCCCCCCCCn1c2c(c(=N)c3c1CCC3)CCC2 | 2.68 µM
COc1ccccc1N1CCN(C(=O)c2cc(=O)c3cc(C)cc(C)c3o2)CC1 | > 80 µM (inactive)
CN1/C(=C\C(=O)C[n+]2ccc3ccccc3c2)C(C)(C)c2ccccc21 | > 80 µM (inactive)
CCn1c2ccccc2c2cc(NC(=O)c3cc(OC)c(OC)c(OC)c3)ccc21 | 18.5 µM
O=C(Nc1ccn(Cc2ccccc2F)n1)c1ccc(COc2ccc(Br)cc2)cc1 | > 80 µM (inactive)
O=C(c1ccc(Cl)cc1)c1cc([N+](=O)[O-])ccc1N1CCOCC1 | 76 µM (inactive)
O=C(O)c1ccc(-c2ccc(-c3ccccc3)cc2)s1 | 2.46 µM
CCOc1ccc(Br)cc1C1=CC(=O)C[C@H](c2ccc(OC)cc2)C1 | > 80 µM (inactive)
Cc1c(C)c2ccc(OCC(=O)Nc3ccccn3)c(C)c2oc1=O | 7.65 µM
O=c1cc(-c2ccccc2)[nH]c2cc(F)ccc12 | > 80 µM (inactive)
CC(=O)c1ccc(N2CCN(S(=O)(=O)c3ccc4c(c3)CC(C)N4C(=O)C3CC3)CC2)cc1 (centres undefined) | 0.72 µM
COc1ccc(OCC(=O)Nc2ccccc2N2CCCCC2)cc1 | > 80 µM (inactive)
CCOC(=O)CSC1=C(C#N)C(c2ccc(C)s2)CC(=O)N1 (centres undefined) | > 80 µM (inactive)
Cc1ccc(/C=C/c2ccc(N(C)C)cc2)[n+](C)c1 | > 80 µM (inactive)
CC(=O)NC(c1ccc2ccccc2c1)c1ccc2cccnc2c1O (centres undefined) | > 80 µM (inactive)
CCOC(=O)c1ccc(Nc2nc(N)c3cc(OC)c(OC)cc3n2)cc1 | > 80 µM (inactive)
c1ccc2c(c1)CCN(c1ncnc3c1[nH]c1ccccc13)C2 | 16.8 µM
CC[C@@]1(O)C(=O)OCc2c1cc1n(c2=O)Cc2cc3c(N)cccc3nc2-1 | 0.62 µM
Cc1ccc(NC(=O)C2=C(c3ccccc3)S(=O)(=O)CCS2(=O)=O)cc1 | 0.39 µM
COc1cc(-c2noc(C)c2C#Cc2ccsc2)cc(OC)c1OC | 77.7 µM (inactive)
C/C=C(\C)C(=O)N[C@@H](c1ccccc1)[C@@H](O)C(=O)O[C@H]1C[C@@]2(O)[C@@H](OC(=O)c3ccccc3)C3[C@](C)(C(=O)[C@H](OC(C)=O)C(=C1C)C2(C)C)[C@H](O)C[C@H]1OC[C@@]31OC(C)=O (some centres undefined) | > 80 µM (inactive)
COc1ccc(-c2ccc3oc(-c4ccc(OC)cc4)c(C#CCO)c3c2)cc1 | > 80 µM (inactive)

Structure (SMILES) | IC50
Cc1ccccc1NC1=C/C(=N\S(=O)(=O)c2cccs2)c2ccccc2C1=O | 6.69 µM
Nc1nc(Cl)cc(N2CCC(c3cc(-c4ccc(Cl)cc4)n[nH]3)CC2)n1 | 5.28 µM
CC(C)(C)OC(=O)NCCCCCc1cn(CC(=O)NCCCCCCCCCCC(=O)N2CCN(C(=O)OC(C)(C)C)CC2)nn1 | > 80 µM (inactive)
CCCN(CCC)C1=CC(=[N+]2CCCC2)CC(C)(C)C1 | 22.6 µM (inactive)
COc1ccc(/C=C2/C(=O)OCc3cc(OC)c(OC)cc32)cc1 | > 80 µM (inactive)
C=C(C)COc1ccc(-c2[nH]ncc2-c2ccc(OC)c(OC)c2)c(O)c1 | 41.7 µM (inactive)
CCOc1ccccc1N1CC(O)=C(c2nc3ccccc3s2)C1=N | 61 µM (inactive)
COc1cccc(N2CCN(c3ncnc4c3cnn4-c3ccc(C)cc3C)CC2)c1 | 1.58 µM
CC(C)(C)c1csc(Sc2ccc([N+](=O)[O-])cn2)n1 | 10.2 µM
C[C@]12CC[C@H](O)C[C@H]1CC[C@@H]1[C@@H]2CC[C@]2(C)[C@@H](C3=CC(=O)OC3)CC[C@]12O | 0.67 µM
CCOc1ccc(N(CC(=O)Nc2ccccc2C)S(=O)(=O)c2c(C)noc2C)cc1 | > 80 µM (inactive)
Cc1ccc2nc(-c3ccc4c(c3)OCCO4)cn2c1 | 0.47 µM
O=C(Nc1ccc(F)cc1)c1ccc(CN2CCc3ccccc3C2)cc1 | > 80 µM (inactive)
CCCC[C@@H](C)C[C@@H](C)C(=O)N(C)[C@@H](CC(C)C)C(=O)N[C@H](C(=O)N(C)[C@H](C(=O)N1C[C@@H](O)C[C@H]1C(=O)N1C(=O)C=C[C@@H]1C)C(C)C)C(C)OC(C)=O (some centres undefined) | < 0.16 µM
CCn1c2ccccc2c2cc(NC(=O)c3cc(OC)cc(OC)c3)ccc21 | > 80 µM (inactive)
COc1cc(C2C3=C(Nc4ncnn42)c2ccccc2CC3)cc(OC)c1OC (centres undefined) | > 80 µM (inactive)
COC(=O)c1[nH]c2c(c1C)C(=O)CC(c1cccc(OC)c1)C2 (centres undefined) | > 80 µM (inactive)
C[C@@H]1O[C@@H](O[C@H]2C[C@@H](O)[C@]3(CO)[C@H]4[C@H](O)C[C@]5(C)[C@@H](C6COC(=O)C6)CC[C@]5(O)[C@@H]4CC[C@]3(O)C2)[C@H](O)[C@H](O)[C@H]1O (some centres undefined) | 3.72 µM
COc1ccc(N(C(=O)c2ccccc2C)S(=O)(=O)c2cccs2)cc1 | > 80 µM (inactive)
COc1ccc([N+](=O)[O-])cc1Nc1c2ccccc2nc2ccccc12 | > 80 µM (inactive)
CC(C)n1c(CN(C)Cc2ccccc2)nc2c1c(=O)n(C)c(=O)n2C | 43.7 µM (inactive)
Cc1ccc(C(=O)c2cc([N+](=O)[O-])ccc2N2CCOCC2)c(C)c1 | > 80 µM (inactive)
COc1cccc(CN(C)C(=O)c2ccc(OCC(=O)Nc3cccc(C(F)(F)F)c3)c(OC)c2)c1 | 65.7 µM (inactive)
Cc1nnc(N/N=C/c2ccccn2)[nH]c1=O | 1.45 µM

Structure (SMILES) | IC50
Cc1cc2c(cc1C)C(c1ccccc1OC(C)C)CC(=O)N2 (centres undefined) | > 80 µM (inactive)
O=S(=O)(c1ccc2c(c1)OCCO2)N1CCN(c2ncnc3sccc23)CC1 | 4 µM
COc1ccccc1NC(=O)c1cnc(Nc2ccccc2OC)c2ccccc12 | > 80 µM (inactive)
Cc1ccc2oc(/N=C(\N)NC(=O)C(C)(C)C)nc2c1 | 0.47 µM
CC(C)CCOc1cccc(OCC(=O)Nc2ccncc2)c1 | > 80 µM (inactive)
N#C/C(=C\c1ccc(OCc2ccc(C(=O)O)cc2)cc1)C(=O)N1CCOCC1 | 5.92 µM
CCN(CC)c1ccc(-c2nn3c(-c4n[nH]c5c4CCC5)nnc3s2)cc1 | > 80 µM (inactive)
Cc1ccc(NC(=O)Nc2ccnc(-c3cccnc3)n2)cc1 | 1.05 µM
COc1ccccc1-c1nnc2sc(-c3ccc(N(C)C)cc3)nn12 | > 80 µM (inactive)
COc1cccc(-c2cc(C(=O)Nc3cc(C)n(Cc4ccc(Cl)cc4)n3)no2)c1 | > 80 µM (inactive)
COc1ccc(NC(=O)C(=O)NCC2CCCN2S(=O)(=O)c2ccc(C)cc2)cc1 (centres undefined) | > 80 µM (inactive)
CCOc1cc(C(=O)N/N=C/C(Br)=C/c2ccccc2)cc(OCC)c1OCC | 35.6 µM (inactive)
COc1ccc(CC(=O)Nc2nc(-c3ccc(F)c(F)c3)cs2)cc1OC | 57.5 µM (inactive)
Cc1ccc(O)c(NC(=O)c2cc(-c3ccco3)on2)c1 | > 80 µM (inactive)
COc1ccc(-n2cc(-c3ccc(C)cc3)[n+]3c2SCC3)cc1 | > 80 µM (inactive)
CCOc1ccc(N/C(N)=N/c2nc(CSc3nnc(C)s3)cc(=O)[nH]2)cc1 | > 80 µM (inactive)
Cc1cccc(N=Nc2ccc(O)c3ncccc23)c1 | 1.1 µM
O=C(N/N=C\c1c(O)ccc2ccccc12)c1ccc(S(=O)(=O)N2CCCCC2)cc1 | > 80 µM (inactive)
CC(=O)c1sc2c(c1OC(=O)c1ccc(Cl)cc1Cl)c(=O)n(-c1ccccc1)c(=S)n2-c1ccccc1 | 1.93 µM
CC/C=C/CC(=O)N[C@@H](c1ccccc1)[C@@H](O)C(=O)O[C@H]1C[C@@]2(O)[C@@H](OC(=O)c3ccccc3)C3[C@](C)(C(=O)[C@H](OC(C)=O)C(=C1C)C2(C)C)[C@@H](O)C[C@H]1OC[C@@]31OC(C)=O (some centres undefined) | > 80 µM (inactive)
O=C(NCCc1ccccc1)c1ccc2c(c1)OCCO2 | 1.12 µM
COc1ccccc1NC(=O)C1=C(C)Nc2nc3ccccc3n2C1c1cccs1 (centres undefined) | > 80 µM (inactive)
Cc1cc(C)c(S(=O)(=O)Nc2ccc3c4c(cccc24)CC3)c(C)c1 | > 80 µM (inactive)
CC(C)(C)c1ccc(C(=O)O/N=C(\N)c2ccccc2)cc1 | 0.17 µM

Structure (SMILES) | IC50
CCOc1ccccc1C(=O)N1CCN(c2cccc(Cl)c2)CC1 | > 80 µM (inactive)
COc1cccc(-c2cc(=O)c3cc(NC(=O)c4ccccc4)ccc3[nH]2)c1 | > 80 µM (inactive)
COc1cccc(/C=N/NC(=O)c2[nH]nc3c2CCc2ccccc2-3)c1O | 61.7 µM (inactive)
COc1cc2nc(CN3CC=C(c4ccccc4)CC3)[nH]c(=O)c2cc1OC | 13.8 µM
CCCC(=O)Nc1nc2ccc(NC(=O)c3c(F)c(F)c(OC)c(F)c3F)cc2s1 | > 80 µM (inactive)
O=C(Nc1ccc(N2CCOCC2)cc1)c1ccc(Cl)c(S(=O)(=O)N2CCCCC2)c1 | > 80 µM (inactive)
COc1ccc(NC(=O)/C(Cl)=C(/Cl)S(=O)Cc2ccc(Cl)cc2)cn1 (centres undefined) | 0.18 µM
CCN(CC)c1ccc2nc3ccc(N)cc3[n+](-c3ccccc3)c2c1 | 57.5 µM (inactive)
COc1ccc(C)c(Cn2c(-c3nonc3N)nc3ccccc32)c1 | > 80 µM (inactive)
CCOc1ccc2c(c1)sc(N)[n+]2Cc1cc(C)cc2cccnc12 | 33.3 µM (inactive)
Cc1cc(C)nc(SCC(=O)Nc2ccnc3ccccc23)n1 | > 80 µM (inactive)
Cn1ncc2c(N3CCN(c4ccc(Cl)c(Cl)c4)CC3)ncnc21 | > 80 µM (inactive)
Cn1nc(C(C)(C)C)cc1C(=O)NCc1cc(F)cc2c1OCOC2 | > 80 µM (inactive)
c1ccc(-c2noc(-c3ccc4c(c3)OCO4)n2)nc1 | 1.27 µM
Cc1nc(Nc2nc3c(c(=O)[nH]2)CCC3)nc2ccccc12 | 6.06 µM
C[C@@H]1O[C@@H](O[C@H]2C[C@@H](O)[C@]3(CO)[C@@H]4C(CC[C@]3(O)C2)[C@@]2(O)CC[C@H](C3COC(=O)C3)[C@@]2(C)C[C@H]4O)[C@H](O)[C@H](O)[C@H]1O (some centres undefined) | 12.2 µM
CCCCCCCCCCn1ccc(=N)cc1 | 11.7 µM
O=C(Nc1ccc(N2CCCCC2)cc1)c1ccccn1 | 0.41 µM
C=CC[C@@H](CC/C=C/C=C/CC/C=C\[C@@H]1CSC([C@@H]2C[C@@H]2C)=N1)OC | 15.3 µM
COc1ccccc1C(=O)N(CCC1CCCN1C)c1nc2ccccc2s1 (centres undefined) | > 80 µM (inactive)
COc1cc(/C=C2/SC(=Nc3ccc(O)cc3)NC2=O)ccc1O | 23.4 µM (inactive)
CCCC1=Nc2cc(C(=O)NCCCOCC)ccc2Sc2ccccc21 | > 80 µM (inactive)
